Data taken from patent publication US10131652B2, “Pyrimidinyloxy benzene derivatives as herbicides” (E. I. DU PONT DE NEMOURS AND COMPANY, priority 2014, dated 2018).

Columns and labels:
Format in all cases: in vivo
[1] = system: pigweed (Amaranthus retroflexus); assay: Test B pre-/postemergence plant response
Outline: (§1)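 Visual injury scores on a 0–100 scale (100 = complete control) relative to untreated plants, taken about 10 days post-treatment in greenhouse. Treatments were a directed preemergence soil spray and a postemergence spray at one- to two-leaf stage, using surfactant-containing solvent formulation.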

[2] = system: corn (Zea mays); assay: Test B pre-/postemergence plant response
Outline: as §1

[3] = system: wheat (Triticum aestivum); assay: Test B pre-/postemergence plant response
Outline: as §1

[4] = system: barnyardgrass (Echinochloa crus-galli); assay: Test B pre-/postemergence plant response
Outline: as §1

[5] = system: giant foxtail (Setaria faberii); assay: Test B pre-/postemergence plant response
Outline: as §1

[6] = system: morningglory (Ipomoea coccinea); assay: Test D pre-/postemergence plant response; conditions: Postemergence; for Plant response rating, Morningglory: scale 0 to 100, 0 no effect, 100 complete control
Outline: (§2)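 Two application timings were run together: preemergence onto seeded loam–sand pots, and postemergence onto 1- to 4-leaf plants (2 to 18 cm) in peat/vermiculite medium with starter nutrients. Formulation was a non-phytotoxic solvent with surfactant. Ratings, 0 to 100, were made visually versus controls after 13 to 15 greenhouse days.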

[7] = system: blackgrass (Alopecurus myosuroides); assay: Test D pre-/postemergence plant response; conditions: Postemergence; for Blackgrass plant response rating: scale 0 to 100 (0 no effect, 100 complete control); for Plant response rating, Blackgrass: scale 0 to 100, 0 no effect, 100 complete control
Outline: as §2

[8] = system: waterhemp (common waterhemp, Amaranthus rudis); assay: Test D pre-/postemergence plant response; conditions: Postemergence; for Plant response rating, Waterhemp: scale 0 to 100, 0 no effect, 100 complete control
Outline: as §2

[9] = system: pigweed (Amaranthus retroflexus); assay: Test D pre-/postemergence plant response; conditions: Postemergence; for Plant response rating, Pigweed: scale 0 to 100, 0 no effect, 100 complete control
Outline: as §2

[10] = system: large (Lg) crabgrass (Digitaria sanguinalis); assay: Test D pre-/postemergence plant response; conditions: Postemergence; for Crabgrass, Large plant response rating: scale 0 to 100 (0 no effect, 100 complete control); for Plant response rating, Crabgrass, Large: scale 0 to 100, 0 no effect, 100 complete control
Outline: as §2

[11] = system: barnyardgrass (Echinochloa crus-galli); assay: Test D pre-/postemergence plant response; conditions: Postemergence; for Barnyardgrass plant response rating: scale 0 to 100 (0 no effect, 100 complete control); for Plant response rating, Barnyardgrass: scale 0 to 100, 0 no effect, 100 complete control
Outline: as §2

[12] = system: ragweed (common ragweed, Ambrosia elatior); assay: Test D pre-/postemergence plant response; conditions: Postemergence; for Plant response rating, Ragweed: scale 0 to 100, 0 no effect, 100 complete control
Outline: as §2

[13] = system: soybean (Glycine max); assay: Test D pre-/postemergence plant response; conditions: Postemergence; for Plant response rating, Soybean: scale 0 to 100, 0 no effect, 100 complete control
Outline: as §2

[14] = system: johnsongrass (Sorghum halepense); assay: Test D pre-/postemergence plant response; conditions: Postemergence; for Plant response rating, Johnsongrass: scale 0 to 100, 0 no effect, 100 complete control
Outline: as §2

[15] = system: yellow nutsedge (Cyperus esculentus); assay: Test D pre-/postemergence plant response; conditions: Postemergence; for Plant response rating, Nutsedge, Yellow: scale 0 to 100, 0 no effect, 100 complete control
Outline: as §2

[16] = system: giant foxtail (Setaria faberii); assay: Test D pre-/postemergence plant response; conditions: Postemergence; for Foxtail, Giant plant response rating: scale 0 to 100 (0 no effect, 100 complete control); for Plant response rating, Foxtail, Giant: scale 0 to 100, 0 no effect, 100 complete control
Outline: as §2

[17] = 125 g ai/ha, postemergence, 0 to 100 scale, 0 no effect, 100 complete control
[18] = Postemergence, 500 g ai/ha, 0 to 100 scale (0 no effect, 100 complete control)
[19] = Preemergence, 125 g ai/ha, 0 to 100 scale (0 no effect, 100 complete control)
[20] = Preemergence, 500 g ai/ha, 0 to 100 scale where 0 is no effect and 100 is complete control
[21] = 31 g ai/ha, scale 0 to 100 (0 no effect, 100 complete control)

FC(F)(F)c1cc(-c2c(Cl)cccc2Oc2ncc(Cl)cn2)no1 [Compound 169]
65: Plant response rating, Morningglory ([6]; 125 g ai/ha)
20: Plant response rating, Corn [2, 18] | Barnyardgrass plant response rating [4, 19]
55: Plant response rating, Morningglory ([6]; 62 g ai/ha) | Plant response rating, Foxtail, Giant ([16]; 125 g ai/ha)
90: Plant response rating, Foxtail, Giant [5, 20] | Waterhemp plant response rating [8, 21] | Plant response rating, Waterhemp ([8]; 62 g ai/ha) | Plant response rating, Waterhemp ([8]; 125 g ai/ha)
35: Plant response rating, Ragweed ([12]; 125 g ai/ha)
0: Plant response rating, Wheat [3, 17] | Plant response rating, Wheat [3, 18] | Blackgrass plant response rating ([7]; 16 g ai/ha) | Blackgrass plant response rating ([7]; 31 g ai/ha) | Plant response rating, Blackgrass ([7]; 62 g ai/ha) | Johnsongrass plant response rating [14, 21] | Plant response rating, Johnsongrass ([14]; 62 g ai/ha) | Nutsedge, Yellow plant response rating [15, 21] | Plant response rating, Nutsedge, Yellow ([15]; 62 g ai/ha) | Foxtail, Giant plant response rating ([16]; 16 g ai/ha)
80: Pigweed plant response rating [9, 21] | Plant response rating, Pigweed ([9]; 62 g ai/ha)
98: Plant response rating, Pigweed ([9]; 125 g ai/ha)
15: Morningglory plant response rating [6, 21] | Plant response rating, Soybean ([13]; 62 g ai/ha)
25: Plant response rating, Blackgrass ([7]; 125 g ai/ha) | Plant response rating, Ragweed ([12]; 62 g ai/ha) | Plant response rating, Soybean ([13]; 125 g ai/ha) | Plant response rating, Foxtail, Giant ([16]; 62 g ai/ha)
5: Crabgrass, Large plant response rating ([10]; 16 g ai/ha) | Crabgrass, Large plant response rating ([10]; 31 g ai/ha) | Barnyardgrass plant response rating ([11]; 16 g ai/ha) | Barnyardgrass plant response rating ([11]; 31 g ai/ha) | Plant response rating, Barnyardgrass ([11]; 62 g ai/ha) | Plant response rating, Barnyardgrass ([11]; 125 g ai/ha) | Ragweed plant response rating [12, 21] | Soybean plant response rating [13, 21] | Plant response rating, Johnsongrass ([14]; 125 g ai/ha) | Plant response rating, Nutsedge, Yellow ([15]; 125 g ai/ha) | Foxtail, Giant plant response rating ([16]; 31 g ai/ha)
50: Foxtail, Giant plant response rating [5, 19]
60: Plant response rating, Foxtail, Giant [5, 18]
100: Plant response rating, Pigweed [1, 17] | Plant response rating, Pigweed [1, 18] | Pigweed plant response rating [1, 19] | Plant response rating, Pigweed [1, 20]
10: Plant response rating, Corn [2, 17] | Plant response rating, Barnyardgrass [4, 17] | Plant response rating, Crabgrass, Large ([10]; 62 g ai/ha) | Plant response rating, Crabgrass, Large ([10]; 125 g ai/ha)
30: Plant response rating, Barnyardgrass [4, 18] | Plant response rating, Barnyardgrass [4, 20] | Plant response rating, Foxtail, Giant [5, 17]
